pIC50: −log10 of the molar value. Like-named read-outs stand apart in the source and are kept apart here.
Key:
Assay type in all cases: biochemical
Aβ42 [1] = biological target: T1, Aβ42 (Homo sapiens, UniProt P05067); assay: Aβ42 aggregation inhibition experiments (gel/western blot, TEM); conditions: flavonoid 50 μM, 24 h
T1 construct: purchased Peptide Institute, Inc. (Osaka, Japan)
Description: To verify whether a series of nine flavonoids can modulate the aggregation of Aβ with and without metal ions, the molecular weight (MW) distribution and morphology of the resultant Aβ species were determined by gel electrophoresis with western blotting (gel/western blot) using an anti-Aβ antibody (6E10) and transmission electron microscopy (TEM), respectively. Two types of experiments were carried out employing two major Aβ isoforms, i.e., Aβ42 and Aβ40:[25] (i) inhibition studies to identify the effect of 1–5, 1a, 1b, 4a, and 4b on the formation of Aβ aggregates; (ii) disaggregation studies to evaluate if the flavonoids with reactivities towards Aβ aggregation in inhibition studies can disassemble preformed Aβ aggregates or modulate their further aggregation, as illustrated in Fig. 4 and S5–S9. ^† Moreover, the solutions containing the flavonoids and Cu(II) were probed by electronic absorption (Abs) spectroscopy to monitor their metal binding. […] As expected, no Abs change of 1a and 4a composed of methoxy groups on the A ring was detected by addition of Cu(II). […]
Ab Aggregation Experiments. Ab was dissolved in ammonium hydroxide [1% w/w NH4OH (aq)] and the resulting solution was aliquoted, lyophilized overnight, and stored at –80 °C. A stock solution of Ab was then prepared by dissolving the lyophilized peptide with NH4OH (1% w/w, aq; 10 µL) and diluting with ddH2O. All Ab samples were prepared following previously reported procedures.21,22 The concentration of the peptide solution was determined by measuring its […]
solution (20 mM HEPES, pH 7.4, 150 mM NaCl) was used for preparing Ab samples. For the inhibition studies, flavonoids (final concentration, 50 µM; 1% v/v DMSO) were added to the samples of Ab (25 µM) in the absence and presence of CuCl2 or ZnCl2 (25 µM) followed by incubation for 24 h at 37 °C with constant agitation. For the disaggregation studies, Ab (25 µM) was incubated with and without CuCl2 or ZnCl2 (25 µM) for 24 h at 37 °C with constant agitation to generate preformed Ab aggregates. The resultant Ab aggregates were then treated with flavonoids (50 µM) and incubated for additional 24 h with constant agitation. For the additional disaggregation experiments, preformed Ab42 aggregates (25 µM) or Ab42 seeds (10% v/v) with or without metal ions (25 µM for CuCl2 and ZnCl2) were incubated with flavonoids (50 µM) for 24 h with constant agitation. The resultant Ab aggregates were then treated with freshly prepared Ab42 […]
(25 µM) and incubated for additional 24 h with constant agitation.
Gel/Western Blot. The resultant Ab species from the aggregation experiments were analyzed by gel/Western blot using an anti-Ab antibody (6E10, Covance, Princeton, NJ, USA).21,22 Each sample (10 µL) was separated on a 10–20% tricine gel (Invitrogen). Following separation, the proteins were transferred onto nitrocellulose membranes and blocked with bovine serum albumin (BSA, 3% w/v; Sigma-Aldrich) in Tris-buffered saline (TBS) containing 0.1% v/v Tween-20 (Sigma-Aldrich) (TBS-T) for 4 h at room temperature or overnight at 4 °C. The membranes were incubated with 6E10 (1:2,000) in the solution of BSA (2% w/v in TBS-T) for 4 h at room temperature. […] A homemade ECL kit21–23 was used to visualize gel/Western blots on a ChemiDoc MP Imaging System (Bio-Rad).
TEM. Samples for TEM were prepared following previously reported methods.22,24 Glow-discharged grids (Formvar/Carbon 300-mesh; Electron Microscopy Sciences, Hatfield, PA, USA) were treated with Ab samples (25 µM; 7.5 µL) for 2 min at room temperature. Excess sample was removed using filter paper followed by washing with ddH2O (3x). Each grid incubated with uranyl […]

[2] = biological target: T2, Electric eel acetylcholinesterase (eeAChE) (Electrophorus electricus, UniProt O42275); assay: Fluorometric AChE activity assay
T2 construct: purchased Invitrogen (AChE assay kit)
T2 sequence (O42275 24-633): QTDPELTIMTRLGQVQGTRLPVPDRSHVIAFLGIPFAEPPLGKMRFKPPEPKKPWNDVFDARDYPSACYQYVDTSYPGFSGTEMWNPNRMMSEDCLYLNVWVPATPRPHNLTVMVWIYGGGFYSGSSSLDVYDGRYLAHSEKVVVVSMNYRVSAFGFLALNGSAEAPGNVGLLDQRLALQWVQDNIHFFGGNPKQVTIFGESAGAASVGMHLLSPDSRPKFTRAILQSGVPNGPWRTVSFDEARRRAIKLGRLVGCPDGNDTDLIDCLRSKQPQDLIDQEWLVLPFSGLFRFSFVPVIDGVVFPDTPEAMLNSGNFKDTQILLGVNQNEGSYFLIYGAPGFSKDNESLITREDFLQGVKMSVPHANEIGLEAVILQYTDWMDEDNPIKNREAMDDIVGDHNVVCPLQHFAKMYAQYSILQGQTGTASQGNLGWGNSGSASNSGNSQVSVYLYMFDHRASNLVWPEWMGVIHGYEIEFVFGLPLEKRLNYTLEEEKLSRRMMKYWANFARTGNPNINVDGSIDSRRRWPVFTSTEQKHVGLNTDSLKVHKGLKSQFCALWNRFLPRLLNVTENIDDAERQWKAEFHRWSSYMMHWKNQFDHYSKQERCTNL
Description: Inhibiting the activity of AChE can maintain a proper level of ACh under dysregulated cholinergic conditions.[10,11] Thus, the inhibitory capability of flavonoids against AChE was investigated by a previously reported fluorescent AChE assay with slight modifications.[60] […] The inclusion of three hydroxyl groups on the A ring is critical for controlling the catalytic activity of AChE, as previously reported,[49] whereas the incorporation of a chloro substituent, with three hydroxyl groups, and methoxy moieties instead of hydroxyl groups on the A ring can decrease such inhibitory activity. Flavonoids 2, 3, and 1b over 1 illustrates the importance of the position of hydroxyl groups on the A ring and the isoflavone variation in directing the flavonoids' ability to inhibit the activity of AChE. […]
All experiments were performed in triplicate.
AChE Activity Assay. The AChE inhibitory activity of flavonoids was measured by a fluorometric AChE assay kit (Invitrogen) following the manufacturer ’s protocol with slight modifications.
Electric eel acetylcholinesterase (eeAChE) was dissolved and diluted with a working solution. The eeAChE solution (50 µL) was added into a 96-well plate. Various concentrations of flavonoids were then introduced into the 96-well plate. The final concentrations of flavonoids were as follow: […]
µM). After shaking, the mixture of eeAChE and flavonoids was pre-incubated for 15 min. A reaction mixture containing acetylcholine, an AChE probe, and AbRedTM was added into the 96-well plate to initiate the reaction. The AChE activity was calculated based on the fluorescence intensity (lex/lem = 571/585 nm) of the wells that was detected after 15 min incubation. Data were normalized to the control (no inhibitor). All experiments were performed in triplicate. […]
For the disaggregation studies, Ab (25 µM) was incubated with and without CuCl2 or ZnCl2 (25 µM) for 24 h at 37 °C with constant agitation to generate preformed Ab aggregates. The resultant Ab aggregates were then treated with flavonoids (50 µM) and incubated for additional 24 h with constant agitation. For the additional disaggregation experiments, preformed Ab42 aggregates (25 µM) or Ab42 seeds (10% v/v) with or without metal ions (25 µM for CuCl2 and ZnCl2) were incubated with flavonoids (50 µM) for 24 h with constant agitation. The resultant Ab aggregates were then treated with freshly prepared Ab42

Aβ42 [3] = biological target: T1, Aβ42; assay: Dot blot assay with anti-oligomer (A11) and anti-fibril (OC) antibodies; conditions: flavonoid 200 μM, up to 24 h
Description: Moreover, to investigate the effects of the flavonoids on the oligomerization and fibrilization of metal-free Aβ42 and metal–Aβ42, we performed the dot blot assay employing anti-oligomer (A11) and anti-fibril (OC) antibodies,[23] as illustrated in Fig. S12. ^† It should be noted that the thioflavin-T (ThT) assay utilized for monitoring the formation of β-sheet-rich aggregates cannot be carried out under our experimental conditions since the absorption windows of 4, 5, and 4b interfere with the excitation and emission wavelengths of ThT (Fig. S13 ^†). […]
Dot Blot Assay. The samples containing Ab42 (100 µM) with or without CuCl2 or ZnCl2 (100 µM) in the absence and presence of flavonoids (200 µM; 1% v/v DMSO) were prepared in 20 mM HEPES, pH 7.4, 150 mM NaCl and incubated for various time points (0, 1, 2, 3, 4, 6, 12, and 24 h). […] The membrane was incubated with a primary antibody [i.e., 6E1026 for Ab species (1:2,000), A1126 for Ab oligomers (1:1,000; Invitrogen, Carlsbad, CA, USA), or OC26 for Ab fibrils (1:2,000; Merch Millipore, Billerica, MA, USA)] in the solution of BSA (2% w/v in TBS-T) for 4 h at room temperature. […] A homemade ECL kit21–23 was used to visualize the results on a ChemiDoc MP Imaging System.
The intensity observed from A11- or OC-detectable Ab species was quantified, relative to that detected from 6E10, by the ImageJ software. […]

[4] = Zn(II)–Aβ42, Aβ 25 μM, Zn(II) 25 μM
[5] = Cu(II)–Aβ42 or Zn(II)–Aβ42 100 μM

T1 sequence (P05067 672-713 limits assumed): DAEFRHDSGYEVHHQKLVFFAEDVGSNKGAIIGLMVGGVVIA

| Compound | morphology of resultant aggregates (TEM) (Aβ42 [1]; Cu(II)–Aβ42) | MW distribution of resultant species (gel/western blot) (Aβ42 [1]; [4]) | morphology of resultant aggregates (TEM) (Aβ42 [1]; Zn(II)–Aβ42) | MW distribution of resultant species (gel/western blot) (Aβ42 [1]; metal-free Aβ42 25 μM, 37 °C) | morphology of resultant aggregates (TEM) (Aβ42 [1]; metal-free Aβ42) | inhibitory activity against AChE (IC50 could not be obtained) ([2]; fluorometric assay, eeAChE) | A11- and OC-detectable signals (oligomers and fibrils) (Aβ42 [3]; [5]) | A11- and OC-detectable signals (oligomers and fibrils) (Aβ42 [3]; metal-free Aβ42 100 μM) | pIC50 ([2]; fluorometric assay, eeAChE, read-out: IC50 for AChE inhibition) | pIC50 [2] |
| --- | --- | --- | --- | --- | --- | --- | --- | --- | --- | --- |
| COc1cc(OC)c2c(=O)cc(-c3ccccc3)oc2c1 [1a, 5,7-dimethoxyflavone] | did not indicate any noticeable morphological changes | a significant change in the MW distribution was not indicated | did not indicate any noticeable morphological changes | could not change the size distribution | little or no morphological alteration | negligible inhibitory activity | not significantly varied | not significantly varied | – | – |
| COc1cc2oc(-c3ccccc3)cc(=O)c2c(OC)c1OC [4a, 5,6,7-trimethoxyflavone] | did not indicate any noticeable morphological changes | a significant change in the MW distribution was not indicated | did not indicate any noticeable morphological changes | could not change the size distribution | little or no morphological alteration | – | not significantly varied | not significantly varied | 4.28 | – |
| O=c1c(-c2ccccc2)coc2cc(O)cc(O)c12 [1b, 5,7-dihydroxyisoflavone] | did not indicate any noticeable morphological changes | a significant change in the MW distribution was not indicated | did not indicate any noticeable morphological changes | could not change the size distribution | little or no morphological alteration | – | not significantly varied | not significantly varied | – | 4.93 |

— PMC10498667 (Chemical Science, 2023)
